Results published in patent US20100240645A1, “COMBINATION OF CHECKPONIT KINASE (CHK) AND TELANGIECTASIA MUTATED (ATM) INHIBITORS FOR THE TREATMENT OF CANCER” (ASTRAZENECA AB, priority 2007, published 2010).
Where two headings read alike, the source gives them in different places.

How the values were obtained:
[1] = system: SW620 cell line; assay: MTS colorimetric cell viability assay, CHK-ATM combination, SW620; conditions: for IC50: Homo sapiens
[2] = system: NCI-H460dnp53 cell line; assay: MTS colorimetric cell viability assay, CHK-ATM combination, NCI-H460dnp53

Row | SMILES | IC50 ([1]; SW-620, 96 h, read-out: IC50 of ATM inhibitor, ATM inhibitor + CHK inhibitor Simultaneous) | IC50 ([1]; SW-620, read-out: IC50 of ATM inhibitor alone) | IC50 ([1]; SW-620, read-out: IC50 of ATM inhibitor, ATM inhibitor followed by CHK inhibitor) | IC50 ([1]; SW-620, read-out: IC50 of ATM inhibitor, CHK inhibitor followed by ATM inhibitor) | IC50 ([2]; 96 h, read-out: IC50 of ATM inhibitor, ATM inhibitor + CHK inhibitor Simultaneous) | IC50 ([2]; read-out: IC50 of ATM inhibitor alone) | IC50 ([2]; read-out: IC50 of ATM inhibitor, ATM inhibitor followed by CHK inhibitor) | IC50 ([2]; read-out: IC50 of ATM inhibitor, CHK inhibitor followed by ATM inhibitor) | activity of CHK inhibitor as a single agent at the constant concentration used ([1]; SW620, 0.28 uM, single agent, previously determined) | activity of CHK inhibitor as a single agent at the constant concentration used ([2]; NCI-H460dnp53, 0.33 uM, single agent, previously determined)
1 | CC1CN(CC(=O)Nc2ccc3c(c2)Cc2cccc(-c4cc(=O)cc(N5CCOCC5)o4)c2S3)CC(C)O1 (stereo not shown) [ATM inhibitor, 2-[(2,6)-2,6-dimethylmorpholin-4-yl]-N-[5-(6-morpholin-4-yl-4-oxo-4H-pyran-2-yl)-9H-thioxanthen-2-yl]acetamide] | 1.9 µM | 7 µM | 3.4 µM | 6 µM | 1.7 µM | > 30 µM | 3.8 µM | 4.4 µM | – | –
2 | NC(=O)Nc1cc(-c2cccc(F)c2)sc1C(=O)N[C@H]1CCCNC1 [CHK inhibitor, 5-(3-Fluoro-phenyl)-3-ureido-thiophene-2-carboxylic acid (S)-piperidin-3-ylamide] | – | – | – | – | – | – | – | – | no activity | no activity
